According to the NIST ThermoML archive (doi:10.1016/j.jct.2006.01.012):

Assay: xn = mol fraction of the nth substance listed
Details: Liquid; for viscosity: Capillary tube (Ostwald / Ubbelohde) method; for mass density: isochoric method

CCCCCCCC [octane] + CCCCCCC
Details	mass density [kg/m3]	viscosity [mPa·s]
373.19 K, 5000 kPa, x2 = 0.7906	–	0.217
373.19 K, 10000 kPa, x2 = 0.7906	–	0.23
373.51 K, 5000 kPa, x2 = 0.2808	–	0.241
373.51 K, 10000 kPa, x2 = 0.2808	–	0.255
373.97 K, 5000 kPa, x2 = 0.5427	–	0.227
373.97 K, 10000 kPa, x2 = 0.5427	–	0.24
374.79 K, 3256 kPa, x2 = 0.2808	634.7	–
374.79 K, 8081 kPa, x2 = 0.2808	641.5	–
374.79 K, 9316 kPa, x2 = 0.2808	643.1	–
380.43 K, 3110 kPa, x2 = 0.5427	623.5	–
380.43 K, 5712 kPa, x2 = 0.5427	628.4	–
380.43 K, 8743 kPa, x2 = 0.5427	633.1	–
380.43 K, 10230 kPa, x2 = 0.5427	635.1	–
382.99 K, 5000 kPa, x2 = 0.2808	–	0.223
382.99 K, 10000 kPa, x2 = 0.2808	–	0.237
383.18 K, 5000 kPa, x2 = 0.5427	–	0.212
383.18 K, 10000 kPa, x2 = 0.5427	–	0.224
384.55 K, 5000 kPa, x2 = 0.7906	–	0.198
384.55 K, 10000 kPa, x2 = 0.7906	–	0.211
386.91 K, 3743 kPa, x2 = 0.7906	612.4	–
386.91 K, 5902 kPa, x2 = 0.7906	616.6	–
386.91 K, 8793 kPa, x2 = 0.7906	621.6	–
386.91 K, 10710 kPa, x2 = 0.7906	624.7	–
393.49 K, 5000 kPa, x2 = 0.2808	–	0.206
393.49 K, 10000 kPa, x2 = 0.2808	–	0.22
394.51 K, 5000 kPa, x2 = 0.5427	–	0.195
394.51 K, 10000 kPa, x2 = 0.5427	–	0.206
395.52 K, 5000 kPa, x2 = 0.7906	–	0.183
395.52 K, 10000 kPa, x2 = 0.7906	–	0.195
401.28 K, 4100 kPa, x2 = 0.7906	601.1	–
401.28 K, 6833 kPa, x2 = 0.7906	606.2	–
401.28 K, 9204 kPa, x2 = 0.7906	610.3	–
401.28 K, 10510 kPa, x2 = 0.7906	612.5	–
401.4 K, 4751 kPa, x2 = 0.2808	614.2	–
401.4 K, 7120 kPa, x2 = 0.2808	618	–
401.4 K, 9310 kPa, x2 = 0.2808	621.7	–
403.23 K, 5000 kPa, x2 = 0.5427	–	0.183
403.23 K, 10000 kPa, x2 = 0.5427	–	0.193
407.72 K, 5000 kPa, x2 = 0.7906	–	0.167
407.72 K, 10000 kPa, x2 = 0.7906	–	0.18
409.59 K, 3334 kPa, x2 = 0.5427	598	–
409.59 K, 7257 kPa, x2 = 0.5427	606.1	–
409.59 K, 9316 kPa, x2 = 0.5427	609.6	–
413.6 K, 5000 kPa, x2 = 0.2808	–	0.178
413.6 K, 10000 kPa, x2 = 0.2808	–	0.191
415.96 K, 5000 kPa, x2 = 0.5427	–	0.167
415.96 K, 10000 kPa, x2 = 0.5427	–	0.177
423.23 K, 3334 kPa, x2 = 0.7906	578.1	–
423.23 K, 7433 kPa, x2 = 0.7906	587.6	–
423.23 K, 9708 kPa, x2 = 0.7906	592.4	–
424.45 K, 5000 kPa, x2 = 0.7906	–	0.149
424.45 K, 10000 kPa, x2 = 0.7906	–	0.16
424.48 K, 4903 kPa, x2 = 0.5427	588.7	–
424.48 K, 7108 kPa, x2 = 0.5427	592.8	–
424.48 K, 9298 kPa, x2 = 0.5427	597.1	–
424.55 K, 5000 kPa, x2 = 0.5427	–	0.158
424.55 K, 10000 kPa, x2 = 0.5427	–	0.167
429.34 K, 3511 kPa, x2 = 0.2808	585.6	–
429.34 K, 8237 kPa, x2 = 0.2808	595.9	–
429.34 K, 9630 kPa, x2 = 0.2808	598.7	–
432.62 K, 5000 kPa, x2 = 0.2808	–	0.156
432.62 K, 10000 kPa, x2 = 0.2808	–	0.168
433.62 K, 5000 kPa, x2 = 0.5427	–	0.148
433.62 K, 10000 kPa, x2 = 0.5427	–	0.158
435.62 K, 5000 kPa, x2 = 0.7906	–	0.138
435.62 K, 10000 kPa, x2 = 0.7906	–	0.149
447.3 K, 4808 kPa, x2 = 0.5427	566	–
447.3 K, 6304 kPa, x2 = 0.5427	569.6	–
447.3 K, 9463 kPa, x2 = 0.5427	576.6	–
451.28 K, 3900 kPa, x2 = 0.2808	565.6	–
451.28 K, 5302 kPa, x2 = 0.2808	569	–
451.28 K, 8131 kPa, x2 = 0.2808	576	–
451.28 K, 9621 kPa, x2 = 0.2808	579.7	–
452.73 K, 5000 kPa, x2 = 0.5427	–	0.129
452.73 K, 10000 kPa, x2 = 0.5427	–	0.14
455.3 K, 5000 kPa, x2 = 0.7906	–	0.12
455.3 K, 10000 kPa, x2 = 0.7906	–	0.132
455.63 K, 5000 kPa, x2 = 0.2808	–	0.133
455.63 K, 10000 kPa, x2 = 0.2808	–	0.145
463.18 K, 5000 kPa, x2 = 0.5427	–	0.12
463.18 K, 10000 kPa, x2 = 0.5427	–	0.131
466.55 K, 4570 kPa, x2 = 0.7906	535.1	–
466.55 K, 7593 kPa, x2 = 0.7906	546.3	–
466.55 K, 9885 kPa, x2 = 0.7906	553.4	–
466.78 K, 3177 kPa, x2 = 0.5427	538.3	–
466.78 K, 8649 kPa, x2 = 0.5427	556.8	–
466.78 K, 9963 kPa, x2 = 0.5427	560.6	–
472.52 K, 5000 kPa, x2 = 0.7906	–	0.107
472.52 K, 10000 kPa, x2 = 0.7906	–	0.118
473.1 K, 5000 kPa, x2 = 0.5427	–	0.112
473.1 K, 10000 kPa, x2 = 0.5427	–	0.123
473.46 K, 5000 kPa, x2 = 0.2808	–	0.118
473.46 K, 10000 kPa, x2 = 0.2808	–	0.13
475.85 K, 4354 kPa, x2 = 0.2808	539.5	–
475.85 K, 8492 kPa, x2 = 0.2808	553.8	–
475.85 K, 10120 kPa, x2 = 0.2808	558.1	–
483.92 K, 4703 kPa, x2 = 0.5427	524.2	–
483.92 K, 7131 kPa, x2 = 0.5427	533.5	–
483.92 K, 9423 kPa, x2 = 0.5427	541.6	–
494.74 K, 4250 kPa, x2 = 0.2808	515.8	–
494.74 K, 6032 kPa, x2 = 0.2808	524.3	–
494.74 K, 8734 kPa, x2 = 0.2808	535.5	–
494.74 K, 9220 kPa, x2 = 0.2808	537.5	–
505.34 K, 5217 kPa, x2 = 0.2808	507.7	–
505.34 K, 8904 kPa, x2 = 0.2808	525.4	–
505.34 K, 9807 kPa, x2 = 0.2808	528.4	–
506 K, 5099 kPa, x2 = 0.7906	487.7	–
506 K, 6982 kPa, x2 = 0.7906	499.4	–
506 K, 8492 kPa, x2 = 0.7906	507.2	–
506 K, 9669 kPa, x2 = 0.7906	512.6	–
518.04 K, 4982 kPa, x2 = 0.5427	480.1	–
518.04 K, 7512 kPa, x2 = 0.5427	496.2	–
518.04 K, 8983 kPa, x2 = 0.5427	504.3	–
525.5 K, 4771 kPa, x2 = 0.2808	475.8	–
525.5 K, 5323 kPa, x2 = 0.2808	480.4	–
525.5 K, 7331 kPa, x2 = 0.2808	494.9	–
525.5 K, 9533 kPa, x2 = 0.2808	506.5	–
536.57 K, 5021 kPa, x2 = 0.5427	449.5	–
536.57 K, 6931 kPa, x2 = 0.5427	468.1	–
536.57 K, 9621 kPa, x2 = 0.5427	486.1	–
549.34 K, 5394 kPa, x2 = 0.5427	431.7	–
549.34 K, 6766 kPa, x2 = 0.5427	449.2	–
549.34 K, 8689 kPa, x2 = 0.5427	464.6	–
549.34 K, 9708 kPa, x2 = 0.5427	471.9	–
555.9 K, 4982 kPa, x2 = 0.7906	394.1	–
555.9 K, 6198 kPa, x2 = 0.7906	416.1	–
555.9 K, 8649 kPa, x2 = 0.7906	445.5	–
555.9 K, 10240 kPa, x2 = 0.7906	458.1	–
557.23 K, 5296 kPa, x2 = 0.2808	430.4	–
557.23 K, 8238 kPa, x2 = 0.2808	461.5	–
557.23 K, 9885 kPa, x2 = 0.2808	473.3	–
557.23 K, 10790 kPa, x2 = 0.2808	479	–
